Reference: US6169181A, “Compounds useful to treat retroviral infections” (Pharmacia & Upjohn Company, priority 1998, dated 2001)
Where “and” joins values, the source holds several entries; their conditions need not be identical. Equal entries are not always repeated. Where two headings read alike, the source gives them in different places.

Assays:
HIV-1 protease [1] = target: T1, HIV-1 protease (Human immunodeficiency virus type 1 group M subtype B, UniProt P04585); experiment: biochemical
Procedure, shortened: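 A substrate biotinylated at the N-terminal arginine and FITC-labelled at the C-terminal lysine was incubated with HIV-1 protease (10 μl of 0.1 μM) and compound for 1 h in the dark at room temperature. Buffer was 0.1 M sodium acetate pH 5.5, 1.0 M NaCl, 0.05% NP-40. Labelled product was separated from substrate using streptavidin beads and filtration, and the fluorescence gave percent inhibition.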

HIV-1 protease [2] = target: T1, HIV-1 protease; experiment: biochemical; remark: listed apart in the source
Procedure, shortened: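 Biotinylated, FITC-labelled peptide substrate cleaved in 0.1 M sodium acetate pH 5.5, 1.0 M NaCl, 0.05% NP-40, room temperature. Filtered labelled product read by fluorescence; nonlinear least-squares fit.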

[3] = Table I, read-out: HIV Protease FITC Assay Ki
[4] = Table II, enzyme HIV-1, DOSE 0.123 (unit not given)
[5] = Table II, enzyme HIV-1, DOSE 0.370 (unit not given)
[6] = Table II, enzyme HIV-1, DOSE 1.100 (unit not given)
[7] = Table II, enzyme HIV-1, DOSE 3.300 (unit not given)
[8] = Table II, enzyme HIV-1, DOSE 10.000 (unit not given)
[9] = Table II, enzyme HIV-1, DOSE 30.000 (unit not given)
[10] = Table II, enzyme HIV-1, read-out: FITC KI
[11] = Table I, Dose 0.123 μM, read-out: Protease % Inhib
[12] = Table I, Dose 0.370 μM, read-out: Protease % Inhib
[13] = Table I, Dose 1.100 μM, read-out: Protease % Inhib
[14] = Table I, Dose 3.300 μM, read-out: Protease % Inhib
[15] = Table I, Dose 10.000 μM, read-out: Protease % Inhib
[16] = Table I, Dose 30.000 μM, read-out: Protease % Inhib

| Structure (SMILES) | Ki (HIV-1 protease [2]; [3]) | inhibition at 0.123 µM (HIV-1 protease [1]; [11]) [%] | inhibition at 0.37 µM (HIV-1 protease [1]; [12]) [%] | inhibition at 1.1 µM (HIV-1 protease [1]; [13]) [%] | inhibition at 3.3 µM (HIV-1 protease [1]; [14]) [%] | inhibition at 10 µM (HIV-1 protease [1]; [15]) [%] | inhibition at 30 µM (HIV-1 protease [1]; [16]) [%] | also measured |
| --- | --- | --- | --- | --- | --- | --- | --- | --- |
| CCCC1(CCC)CC(O)=C(C(CC)c2cccc(NS(=O)(=O)c3cn(C)cn3)c2)C(=O)O1 (single isomer, unassigned) [Example 55, (S or R)-N-[3-[1-(4-hydroxy-2-oxo-6,6-dipropyl-5,6-dihydro-2H-pyran-3-yl)-propyl]-phenyl]-1-methyl-1H-imidazole-4-sulfonamide] | 1.7 nM | – | – | – | – | – | – | PROTEASE % INHIB. (HIV-1 protease [1]; Table I, Dose 0.123 μM): < 10%; PROTEASE % INHIB. (HIV-1 protease [1]; Table I, Dose 0.370 μM): 18.77%; PROTEASE % INHIB. (HIV-1 protease [1]; Table I, Dose 1.100 μM): 58.27%; PROTEASE % INHIB. (HIV-1 protease [1]; Table I, Dose 3.300 μM): 86.98%; PROTEASE % INHIB. (HIV-1 protease [1]; Table I, Dose 10.000 μM): 98.33%; PROTEASE % INHIB. (HIV-1 protease [1]; Table I, Dose 30.000 μM): 85.88% |
| CCC(C1=C(O)CC(CCc2ccc(F)cc2)(CCc2ccc(F)cc2)OC1=O)c1cccc(NS(=O)(=O)c2ccc(C(N)=O)cn2)c1 (stereo not shown) [Example 333, N-[3-{1-(4-Hydroxy-5,6-dihydro-2-oxo-6,6-bis(2-(4-fluorophenyl)ethyl)-2H-pyran-3-yl)propyl}phenyl]-5-carbamoylpyridine-2-sulfonamide] | – | – | – | – | – | – | – | PROTEASE % INHIB. (HIV-1 protease [1]; [4]): 66.73%; PROTEASE % INHIB. (HIV-1 protease [1]; [5]): 85.07%; PROTEASE % INHIB. (HIV-1 protease [1]; [6]): 85.12%; PROTEASE % INHIB. (HIV-1 protease [1]; [7]): 93.69%; PROTEASE % INHIB. (HIV-1 protease [1]; [8]): 89.38%; PROTEASE % INHIB. (HIV-1 protease [1]; [9]): 77.91%; Ki (HIV-1 protease [2]; [10]): 7.7 nM |
| CN(c1cccc(C(c2c(O)c3c(oc2=O)CCCCCC3)C2CC2)c1)S(=O)(=O)c1ccc(F)cc1 (stereo not shown) [Example 193, 4-Fluoro-N-methyl-N-[3-[cyclopropyl(5,6,7,8,9,10-hexahydro-4-hydroxy-2-oxo-2H-cycloocta[b]pyran-3-yl)methyl]phenyl]-benzenesulfonamide] | 35 nM | 18.4 | 40.3 | 77.7 | 98.1 | 108 | 103 | – |
| CCC(CCOCCOC)c1cc(O)c(C(c2cccc(NS(=O)(=O)c3ccc(C#N)cc3)c2)C2CC2)c(=O)o1 (stereo not shown) [Example 106, 4-Cyano-N-(3-{cyclopropyl-[6-(1-ethyl-3-{2-methoxy-ethoxy}-propyl)-4-hydroxy-2-oxo-2H-pyran-3-yl]-methyl}-phenyl)-benzenesulfonamide] | 3.29 nM | 60.9 | 86.6 | 93.7 | 98.9 | 99 | 106 | – |
| O=c1oc(C(CC2CC2)CC2CC2)cc(O)c1C(c1cccc(NS(=O)(=O)c2ccc3ccccc3n2)c1)C1CC1 (stereo not shown) [Example 103, N-(3-{Cyclopropyl-[6-(2-cyclopropyl-1-cyclopropylmethyl-ethyl)-4-hydroxy-2-oxo-2H-pyran-3-yl]-methyl}-phenyl)-2-quinolinesulfonamide] | 1.72 nM | 65.5 | 82.6 | 96.9 | 100 | 105 | 96 | – |
| Cn1ccnc1S(=O)(=O)Nc1cccc(C(c2c(O)cc(C(CC3CC3)CC3CC3)oc2=O)C2CC2)c1 (stereo not shown) [Example 100, N-(3-{Cyclopropyl-[6-(2-cyclopropyl-1-cyclopropylmethyl-ethyl)-4-hydroxy-2-oxo-2H-pyran-3-yl]-methyl}-phenyl)-1-methyl-1H-imidazole-2-sulfonamide] | 0.73 nM | 103 | 101 | 91 | 96.5 | – | 101 | inhibition at 100 µM (HIV-1 protease [1]; Table I, Dose 100.000 μM, read-out: Protease % Inhib): 101% |
| CC[C@H](Cc1ccccc1)c1cc(O)c(C(c2cccc(NS(=O)(=O)c3ccccn3)c2)C2CC2)c(=O)o1 (single isomer, unassigned) [Example 142, N-(3-(R or S)-{Cyclopropyl-[6-(1-(R)-ethylphenethyl)-4-hydroxy-2-oxo-2H-pyran-3-yl]-methyl}-phenyl)-2-pyridinesulfonamide] | 1.6 nM | – | – | – | – | – | – | PROTEASE % INHIB. (HIV-1 protease [1]; Table I, Dose 0.123 μM): 78.01%; PROTEASE % INHIB. (HIV-1 protease [1]; Table I, Dose 0.370 μM): 92.52%; PROTEASE % INHIB. (HIV-1 protease [1]; Table I, Dose 1.100 μM): 106.64%; PROTEASE % INHIB. (HIV-1 protease [1]; Table I, Dose 3.300 μM): 105.15%; PROTEASE % INHIB. (HIV-1 protease [1]; Table I, Dose 10.000 μM): 110.58%; PROTEASE % INHIB. (HIV-1 protease [1]; Table I, Dose 30.000 μM): 106.77% |
| CCCC1(CCc2ccccc2)CC(O)=C(C(c2cccc(NS(=O)(=O)c3cn(C)cn3)c2)C2CC2)C(=O)O1 (stereo not shown) [Example 61] | 0.71 nM | 86.8 | 95.5 | 103 | 103 | 106 | 104 | – |
| CC(C)(C)C(C1=C(O)CC(CCc2ccccc2)(CCc2ccccc2)OC1=O)c1cccc(NS(=O)(=O)c2ccc(C#N)cn2)c1 (stereo not shown) [Example 344, N-[3-{1-(4-Hydroxy-5,6-dihydro-2-oxo-6,6-bis(2-phenylethyl)-2H-pyran-3-yl)-2,2-dimethylpropyl}phenyl]-5-cyanopyridine-2-sulfonamide] | – | – | – | – | – | – | – | PROTEASE % INHIB. (HIV-1 protease [1]; [4]): 47.37%; PROTEASE % INHIB. (HIV-1 protease [1]; [5]): 72.84%; PROTEASE % INHIB. (HIV-1 protease [1]; [6]): 81.17%; PROTEASE % INHIB. (HIV-1 protease [1]; [7]): 83.08%; PROTEASE % INHIB. (HIV-1 protease [1]; [8]): 68.47%; PROTEASE % INHIB. (HIV-1 protease [1]; [9]): 46.24%; Ki (HIV-1 protease [2]; [10]): 5.9 nM |
| CCC[C@]1(CCc2ccc(F)cc2)CC(O)=C([C@H](c2cccc(NS(=O)(=O)c3cn(C)cn3)c2)C(C)(C)C)C(=O)O1 (single isomer, unassigned) [Example 352, N-[3-{1(S or R)-(4-Hydroxy-5,6-dihydro-2-oxo-6(S or R)-(2-(4-fluorophenyl)ethyl)-6-propyl-2H-pyran-3-yl)-2,2-dimethyl-propyl}phenyl]-1-methyl-1H-imidazole-4-sulfonamide] | – | – | – | – | – | – | – | PROTEASE % INHIB. (HIV-1 protease [1]; [4]): < 10%; PROTEASE % INHIB. (HIV-1 protease [1]; [5]): 25.31%; PROTEASE % INHIB. (HIV-1 protease [1]; [6]): 47.78%; PROTEASE % INHIB. (HIV-1 protease [1]; [7]): 74.99%; PROTEASE % INHIB. (HIV-1 protease [1]; [8]): 85.86%; PROTEASE % INHIB. (HIV-1 protease [1]; [9]): 87.82%; Ki (HIV-1 protease [2]; [10]): 168 nM |
| Cn1cnc(S(=O)(=O)Nc2cccc(C(c3c(O)cc(C(CC4CC4)CC4CC4)oc3=O)C3CC3)c2)c1 (stereo not shown) [Example 97, N-(3-{Cyclopropyl-[6-(2-cyclopropyl-1-cyclopropylmethyl-ethyl)-4-hydroxy-2-oxo-2H-pyran-3-yl]-methyl}-phenyl)-1-methyl-1H-imidazole-4-sulfonamide] | – | – | – | – | – | – | – | inhibition at 0.123 µM (HIV-1 protease [1]; read-out: Protease % Inhib): 105%; inhibition at 0.37 µM (HIV-1 protease [1]; read-out: Protease % Inhib): 106%; inhibition at 1.1 µM (HIV-1 protease [1]; read-out: Protease % Inhib): 110%; inhibition at 3.3 µM (HIV-1 protease [1]; read-out: Protease % Inhib): 107%; inhibition at 10 µM (HIV-1 protease [1]; read-out: Protease % Inhib): 116%; inhibition at 30 µM (HIV-1 protease [1]; read-out: Protease % Inhib): 115%; Ki (HIV-1 protease [2]; read-out: HIV Protease FITC Assay Ki): 1 nM |
| CC[C@H](Cc1ccccc1)c1cc(O)c(C(c2cccc(NS(=O)(=O)c3ccc(C#N)cc3)c2)C2CC2)c(=O)o1 (single isomer, unassigned) [Example 148, N-(3-(R or S)-{Cyclopropyl-[6-(1-(R)-ethylphenethyl)-4-hydroxy-2-oxo-2H-pyran-3-yl]-methyl}-phenyl)-4-cyanobenzenesulfonamide] | 4.77 nM and 18.1 nM | 81.3 | 91.7 | 95.6 | 90 | 99.2 | 93.5 | – |
| CCCC1(CCc2ccccc2)CC(O)=C(C(c2cccc(NS(=O)(=O)c3ccc(C#N)cc3)c2)C2CC2)C(=O)O1 (stereo not shown) [Example 58] | 3.8 nM | 64.9 | 83.7 | 94.2 | 95.9 | 100 | 89.8 | – |
| Cn1ccnc1S(=O)(=O)Cc1cccc(C(c2c(O)c3c(oc2=O)CCCCCC3)C2CC2)c1 (stereo not shown) [Example 15, 3-[cyclopropyl[3-[(2-(1-methylimidazoyl)sulfonyl)methyl]phenyl]methyl]-5,6,7,8,9,10-hexahydro-4-hydroxy-2H-cycloocta[b]pyran-2-one] | 2.8 nM | 77.6 | 88.5 | 92.4 | 94 | 95.8 | 99.2 | – |
| CCCC1CCCCCc2c1oc(=O)c(C(c1cccc(NS(=O)(=O)c3ccccc3)c1)C1CC1)c2O (stereo not shown) [Example 1, N-[3-[cyclopropyl(5,6,7,8,9,10-hexahydro-4-hydroxy-2-oxo-10-propyl-2H-cycloocta[b]pyran-3-yl)methyl]phenyl]benzenesulfonamide] | 15 nM | 75.4 | 87.3 | 97.1 | 96.8 | 99.7 | 97.4 | – |
| CC(C)(C)C(C1=C(O)CC(CCc2ccccc2)(CCc2ccccc2)OC1=O)c1cccc(NS(=O)(=O)c2ccc(N)cn2)c1 (single isomer, unassigned) [Example 355, N-[3-{1(R or S)-(4-Hydroxy-5,6-dihydro-2-oxo-6,6-bis(2-phenylethyl)-2H-pyran-3-yl)-2,2-dimethylpropyl}phenyl]-5-aminopyridine-2-sulfonamide] | – | – | – | – | – | – | – | PROTEASE % INHIB. (HIV-1 protease [1]; [4]): < 10%; PROTEASE % INHIB. (HIV-1 protease [1]; [5]): < 10%; PROTEASE % INHIB. (HIV-1 protease [1]; [6]): < 10%; PROTEASE % INHIB. (HIV-1 protease [1]; [7]): 20.72%; PROTEASE % INHIB. (HIV-1 protease [1]; [8]): 46.66%; PROTEASE % INHIB. (HIV-1 protease [1]; [9]): 67.82%; Ki (HIV-1 protease [2]; [10]): 700 nM |
